Test [1] has as its system VEGF. In words: qPCR (TLDA) VEGF gene expression in HFDPC. It is filed as cell-based, human. The following applies: peptide 10^−5 M (table title), 24 hours, relative to untreated controls. The method, then:
(§1) RNA was extracted and purified from cell pellets using the RNA XS Kit (Macherey-Nagel). RNA quantification was carried out with a NanoDrop device and sample quality was verified on a Bioanalyzer with RNA 6000 Nano chips (Agilent). cDNA was synthesized from 300 ng of RNA using the High-Capacity cDNA Reverse Transcription Kit (LifeTech). Quality-control qPCR assays of the cDNA were carried out in microplates on the reference gene, GAPDH, and the SIRT1 gene.
(§2) Final qPCR experiments were carried out in a 1 μl volume on microfluidic cards (TaqMan Low Density Arrays, LifeTech) and the ABI 7900HT qPCR device. Amplification reactions were performed in duplicate using 1 to 2 ng of cDNA per qPCR reaction and TaqMan Universal Master Mix II (LifeTech).
(§3) Ct values were obtained using the RQ Manager software. For analyses of qPCR results, Ct values were limited to 35 cycles and the duplicate assays are averaged. The GeneXPro software was used for the studies of stability and of selection of the best reference genes. Expression variations are calculated by the relative quantification method and are expressed as percent increase in expression of the gene of interest relative to the untreated controls.

Test [2] relates to genes whose expression is reduced in subjects characterized by alopecia. Kind of test: qPCR (TLDA) overall statement, genes involved in alopecia, HFDPC. The conditions noted are these: summary of Table 1. It is filed as cell-based, human. Here is the method:
(§4) To study the effect of 9 peptides on these genes, HFDPC were treated for 24 hours with the molecules tested at 10^−7M and 10^−9M concentrations.
as §1, §2, §3

Another test has as its system PDGF. In words: PDGF secretion by HFDPC (ELISA/BioPlex). The class given is cell-based, human. The following applies: 48h. The method, then: (§5) NHDF, HFDPC, HHFK and NHEM cells were treated with the peptides studied for 48h. At the end of the treatment, cell supernatants were collected and stored at −80° C. until analysis. The factors of interest secreted into the supernatant were assayed by ELISA® (R&D) or BioPlex® (BioRad®).
(§6) The results are expressed as percent increase in the concentration of the factor present in the supernatant relative to the untreated control. The intensity of the effect varies as a function of the concentration of the peptide studied and of the cell type treated.

For a further test, the system named is KGF. In words: KGF secretion by HFDPC (ELISA/BioPlex). The class given is cell-based, human. The conditions noted are these: 48h. Here is the method: as §5, §6
Test [3] relates to VEGF. Kind of test: VEGF secretion by HFDPC (ELISA/BioPlex). The class given is cell-based, human. The following applies: 48h. The method, then:
as §5, §6

The subject of test [4] is HGF. Kind of test: HGF secretion by HFDPC (ELISA/BioPlex). The class given is cell-based, human. The conditions noted are these: 10^−9 M, 48h. The method, then: as §5, §6
Test [5] has as its system NGF. Kind of test: NGF secretion by HFDPC (ELISA/BioPlex). The class given is cell-based, human. The following applies: 10^−9 M, 48h. Here is the method:
as §5, §6

Test [6] deals with NGF. Kind of test: NGF secretion by NHDF (ELISA/BioPlex). The class given is cell-based, human. The conditions noted are these: 48h. The method, then:
as §5, §6

Test [7] deals with VEGF. In words: VEGF secretion by NHDF (ELISA/BioPlex). The class given is cell-based, human. The following applies: 48h. The method, then:
as §5, §6

Test [8] concerns HGF. In words: HGF secretion by NHDF (ELISA/BioPlex). It is filed as cell-based, human. The following applies: 10^−9 M, 48h. The method, then:
as §5, §6

For test [9], the system named is normal human dermal fibroblasts (NHDF). Kind of test: CellTiter-Blue proliferation of NHDF. It is filed as cell-based. The conditions noted are these: 10^−5M, 72 hours. Here is the method:
Cell proliferation and viability were evaluated in vitro with a kit from Promega, CellTiter-Blue® Cell Viability Assay, for estimating the number of living cells present in the culture. This kit is based on detection, by measurement of fluorescence, of conversion of the dye, resazurin, into a fluorescent product (resorufin) by living and thus metabolically active cells.
The effect of the peptides tested, (1) and (9), at 4 different concentrations (10^−5, 10^−7, 10^−9 and 10^−11M) was examined on five cell types: immortalized human skin keratinocytes (HaCaT), human hair follicular keratinocytes (HHFK), normal human dermal fibroblasts (NHDF), hair follicle dermal papilla cells (HFDPC), and normal human epidermal melanocytes (NHEM) exposed to the molecule studied for 72 hours.

The subject of another test is IGF1. In words: qPCR (TLDA) IGF1 gene expression in HFDPC. The conditions noted are these: peptide 10^−9, 24 hours, relative to untreated controls. The class given is cell-based, human. The method, then:
as §4, §1, §2, §3

Test [10] has as its system BMP2. In words: qPCR (TLDA) BMP2 gene expression in HFDPC. The class given is cell-based, human. The conditions noted are these: peptide 10^−9, 24 hours, relative to untreated controls. Here is the method: as §4, §1, §2, §3
In test [11] the test system is BMP2. In words: BMP2 secretion by HFDPC (ELISA/BioPlex). It is filed as cell-based, human. The conditions noted are these: 10^−5 M, 48h. Here is the method:
as §5, §6

The test system of test [12] is SCF. In words: SCF secretion by NHDF (ELISA/BioPlex). The class given is cell-based, human. The following applies: 10^−5 M, 48h. Here is the method:
as §5, §6

Test [13] has as its system HGF. Kind of test: HGF secretion by HHFK (ELISA/BioPlex). It is filed as cell-based, human. The following applies: 10^−7 M, 48h. The method, then: as §5, §6
For test [14], the system named is SCF. Kind of test: SCF secretion by HHFK (ELISA/BioPlex). It is filed as cell-based, human. The conditions noted are these: 10^−7 M, 48h. Here is the method:
as §5, §6

For test [15], the system named is NGF. Kind of test: NGF secretion by HHFK (ELISA/BioPlex). It is filed as cell-based, human. The conditions noted are these: 10^−7 M, 48h. The method, then:
as §5, §6

The subject of test [16] is VEGF. In words: VEGF secretion by NHEM (ELISA/BioPlex). It is filed as cell-based, human. The following applies: 10^−7 M, 48h. The method, then:
as §5, §6

Test [17] has as its system microdissected hairs from scalp surgery specimens. Kind of test: Growth of isolated hair ex vivo. The conditions noted are these: for Growth at D 11/D 12 Vs Control: ex vivo isolated hair. The class given is cell-based, human. Here is the method:
This study was carried out on microdissected hairs from scalp surgery specimens from women aged 52 to 71 years. Isolated hairs were kept alive for 11 to 12 days in Williams medium, under conventional cell culture conditions (37° C., 5% CO2). […]
To evaluate the effect of (1), (6) or (9) on hair growth, the hairs were photographed and their lengths measured using image analysis software. Thus, the growth of the hairs between D0 and D11/D12 could be calculated and compared with that of the untreated control. At the end of the treatments (D11 or D12), the hairs were collected and frozen or fixed for immunolabeling and histological staining.

Marks after values point to notes of the source that are not given here. The star is where a group is joined. Palmitoyl = CCCCCCCCCCCCCCCC(=O)*

As for “Palm-Ala-Arg-Pro-Ala-Lys-NH2 (Palmitoyl-ARPAK-NH2; SMILES CCCCCCCCCCCCCCCC(=O)N[C@@H](C)C(=O)N[C@@H](CCCNC(=N)N)C(=O)N1CCC[C@H]1C(=O)N[C@@H](C)C(=O)N[C@@H](CCCCN)C(N)=O) [(3)]”, the “% stimulation VEGF gene expression” value in the test on VEGF [1] worked out at 83%. Also, the “stimulation of genes whose expression is reduced in alopecia (in words)” value in test [2] is listed as “stimulate several genes”. In addition, the “PDGF secretion, percent increase relative to untreated control” value with PDGF (10^−9 M) is listed as “PDGF 39%”. Further, the figures for the “KGF secretion, percent increase relative to untreated control” value with KGF (10^−7 M) and in the test on KGF (10^−9 M) were “KGF 53%” and “KGF 45%”, respectively. The figures for the “VEGF secretion, percent increase relative to untreated control” value with VEGF [3] (10^−7 M) and in the test with VEGF [7] (10^−9 M) were “VEGF 9%” and “VEGF 48%”, respectively. Also, the “HGF secretion, percent increase relative to untreated control” value was “HGF 33%” in the test with HGF [4] and “HGF 5%” in the test with HGF [8]. Moreover, the “NGF secretion, percent increase relative to untreated control” value with NGF [5] is reported as “NGF 6%”; in the test on NGF [6] (10^−9 M), “NGF 89%”.

Regarding “Palm-Ala-Ala-Pro-Ala-Lys-NH2 (Palmitoyl-AAPAK-NH2; SMILES CCCCCCCCCCCCCCCC(=O)N[C@@H](C)C(=O)N[C@@H](C)C(=O)N1CCC[C@H]1C(=O)N[C@@H](C)C(=O)N[C@@H](CCCCN)C(N)=O) [(6)]”, the “stimulation of proliferation of NHDF” value in [9] is “+11%”. Besides, in the test on VEGF [1], the “% stimulation VEGF gene expression” value is recorded as 24%. Moreover, in the test with IGF1, the “% stimulation IGF1 gene expression” value is recorded as 94% (10^−9). For the same substance, the “% stimulation BMP2 gene expression” value in the test on BMP2 [10] is given as 116% (10^−9). Also, the “stimulation of genes whose expression is reduced in alopecia (in words)” value in test [2] was “stimulate several genes”. Also, the “PDGF secretion, percent increase relative to untreated control” value in the test on PDGF (10^−5 M) is on record as “PDGF 15%”; in the test on PDGF (10^−7 M), “PDGF 38%”. In addition, the “KGF secretion, percent increase relative to untreated control” value in the test with KGF (10^−5 M) was “KGF 7%”; in the test with KGF (10^−7 M), “KGF 13%”. Moreover, the “VEGF secretion, percent increase relative to untreated control” value in the test with VEGF [3] (10^−5 M) is given as “VEGF 18%”; in the test with VEGF [7] (10^−7 M), “VGF 407%”; in the test with VEGF [16] it was “VEGF 15%”. Moreover, the “BMP2 secretion, percent increase relative to untreated control” value in the test with BMP2 [11] is “BMP2 44%”. The “NGF secretion, percent increase relative to untreated control” value is on record as “NGF 51%” with NGF [6] (10^−5 M), “NGF 12%” with NGF [6] (10^−7 M) and “NGF 10%” in the test on NGF [15]. In addition, the figures for the “SCF secretion, percent increase relative to untreated control” value with SCF [12] and in the test on SCF [14] were “SCF 8%” and “SCF 9%”, respectively. In the test on HGF [13], the “HGF secretion, percent increase relative to untreated control” value is given as “HGF 52%”. In addition, the “Growth at D 11/D 12 Vs Control” value is listed as “+28%” in test [17] (10^−7 M) and “+38%#” in [17] (10^−9 M). In addition, the “growth increase compared with minoxidil sulphate” value in [17] (peptide 10^−9M, minoxidil sulphate 10^−5 M) was “higher than that obtained after treatment with minoxidil sulphate”. Also, the “hair growth after 11 to 12 days of treatment ex vivo (in words)” value in [17] (summary of Table 3) is given as “stimulate hair growth”.

The values above are taken from patent US10947273B2, “Peptides of use in the preventive and curative treatment of alopecia” (Institut Europeen de Biologie Cellulaire, priority 2015, dated 2021).
